Consider 18 molecules from US10323018B2 (Millennium Pharmaceuticals, Inc., priority 2015, dated 2019).

One assay has as its system PC3 cells. Nature of the assay: PC3 growth inhibition (Cell-titer glo, 72 hours). Conditions: Homo sapiens, PC-3, 72 h, read-out: Percent Viability, PC3 cells, compound concentration 1.667 μM, 72 hours. The class given is cell-based. On the procedure: The invention also provides compounds that inhibit cell growth. The ability of a compound of the invention to inhibit the growth of cells can be measured using a variety of methods known in the art. For example, the ability of a compound of the invention to inhibit the growth of PC3 cells can be measured. PC3 cells can be plated and incubated overnight under CO2. For each measurement, a compound of the invention (or vehicle e.g., DMSO) can be diluted with AIM serum free medium and added to the cell plate. The cell plate can then be incubated for 72 h under CO2. Cell-titer glo solution can be added and the plates can be incubated protected from light and the amount of luminescences can be measured. Concentration response curves can be generated by calculating the luminescence increase in test compound treated samples relative to DMSO-treated controls. Percentage remaining viability values at a single concentration can be measured. Growth inhibition (GI50) or cell viability (LD50) values can be determined from thoses curves. In one embodiment, compounds of the invention have a percent viability in PC3 line @ 1.667 uM of <1%. In one embodiment, compounds of the invention have a percent viability in PC3 line @ 1.667 uM of <2%. In one embodiment, compounds of the invention have a percent viability in PC3 line @ 1.667 uM of <3%. In one embodiment, compounds of the invention have a percent viability in PC3 line @ 1.667 uM of <4%. In one embodiment, compounds of the invention have a percent viability in PC3 line @ 1.667 uM of <5%. In one embodiment, compounds of the invention have a percent viability in PC3 line @ 1.667 uM of <10%. In one embodiment, compounds of the invention have a percent viability in PC3 line @ 1.667 uM of <50%.
To measure PC3 growth inhibition, PC3 cells that were maintained in RPMI1640 growth medium (Life Technologies; Cat. No. 11875) at 37° C. under 5% CO2 are trypsinized and diluted at a density of 8×10^4 cells/ml, 25 ul per well of cells and plated in 384-well black tissue culture plate. The cells are incubated overnight at 37° C. under 5% CO2. For each measurement, a test compound or vehicle DMSO control is diluted with AIM serum free medium and added to the cell plate. The cell plate is incubated for 72 hours at 37° C. under 5% CO2. 25 μl Cell-titer glo solution (Promega; Cat. No. G8462) is added and the cell plates are incubated for 10 minutes protected from light. The luminescence is measured. Concentration response curves are generated by calculating the luminescence increase in test compound-treated samples relative to DMSO-treated controls. Percentage remaining viability values at a single concentration, growth inhibition (GI50) or cell viability (LD50) values are determined from those curves. One skilled in the art will appreciate that these values are subject to experimental variation.

A further assay addresses hNAMPT protein (Homo sapiens (Human), UniProt P43490). Nature of the assay: NAMPT enzyme assay (TR-FRET/HTRF with BodiPY ligand). Type of assay: binding. Conditions: for inhibition at 1 µM: read-out: Percent Inhibition; for IC50: NAMPT inhibition, IC50 range class. The source says:
As discussed above, the invention provides compounds that are useful as inhibitors of the enzyme NAMPT. The NAMPT inhibition of a compound of the invention can be measured using a variety of methods known in the art. For example, the ability of a compound of the invention to inhibit NAMPT enzyme activity can be measured using a homogeneous time resolved fluorescence (HTRF) assay using hNAMPT protein and anti 6His-Tb in buffer treated with a compound of the invention (or control e.g., DMSO) and BodiPY ligand. The TR-FRET signal can be measured using a high throughput microplate reader (e.g., Pherastar). Excitation can be carried out at 320 nm. The percent inhibition value at a single concentration of compound of the invention can be calculated relative to a control treated sample. A concentration response curve can be generated for each compound of the invention and the curve fitted to generate an IC50 value. […] To measure the inhibition of NAMPT activity hNAMPT protein stock and anti 6His-Tb (Cisbio; Cat. No. […]TLB) is diluted to 3× final concentration with assay buffer (50 mM Tris-HCl (pH 7.5), 1 mM DTT, 100 mM NaCl, 10 mM MgCl2, 0.005% Tween 20). To this solution is added a test compound or vehicle control (DMSO) and BodiPY ligand (structure below). The plate is shaken for 1-2 min sealed and incubated for 1 h at rt in the dark. The TR-FRET signal is measured using BMG Pherastar (Lanthascreen protocol on BMG Pherastar). Excitation was carried out at 320 nm, and the ratio of emission of BodiPY (520 nm) to terbium (486 nm) was determined. Concentration response curves are generated by calculating the excitation increase in test compound-treated samples relative to DMSO-treated controls. For the assay method described above, test compound percent inhibition values at a single concentration are calculated relative to control (DMSO) treated samples. Compound concentration response curves are fitted to generate IC50 values from those curves. One skilled in the art will appreciate that these values generated either as percentage inhibition at a single concentration or IC50 values are subject to experimental variation.
In general terms: Time-resolved FRET reads energy transfer from a long-lived donor to a nearby acceptor.

Setting [1] is: NAMPT inhibition at compound concentration 1 μM.

Like-named read-outs stand apart in the source and are kept apart here.

Sequence of hNAMPT protein (P43490 whole entry): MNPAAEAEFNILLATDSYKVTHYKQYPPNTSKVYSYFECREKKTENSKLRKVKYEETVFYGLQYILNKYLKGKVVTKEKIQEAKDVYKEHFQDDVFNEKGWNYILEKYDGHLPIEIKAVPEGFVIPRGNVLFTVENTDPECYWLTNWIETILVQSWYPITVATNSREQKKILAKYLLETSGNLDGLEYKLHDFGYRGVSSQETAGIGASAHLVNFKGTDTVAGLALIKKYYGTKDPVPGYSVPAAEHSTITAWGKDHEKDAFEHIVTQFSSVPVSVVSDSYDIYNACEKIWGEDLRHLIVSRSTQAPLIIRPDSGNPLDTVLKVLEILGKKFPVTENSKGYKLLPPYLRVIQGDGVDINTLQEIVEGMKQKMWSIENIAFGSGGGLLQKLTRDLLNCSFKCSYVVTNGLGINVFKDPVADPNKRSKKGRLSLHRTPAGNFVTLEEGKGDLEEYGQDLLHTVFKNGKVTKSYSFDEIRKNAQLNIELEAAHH

A word on the inhibition: it is the relative decrease from the control value, in per cent. One may read the IC50 as the point on the concentration scale where inhibition reaches its midpoint. Read a high IC50 as lower potency. As to `CC[C@@H](F)c1nc(-c2ccc(Cl)cc2)nc2cc(C(=O)NCCCc3ncc[nH]3)ccc12` (stereo in doubt) [Compound I-72, 2-(4-chlorophenyl)-4-[1-fluoropropyl]-N-[3-(1H-imidazol-2-yl)propyl]quinazoline-7-carboxamide], the viability at 1.667 µM with PC3 cells came to 1%. Moreover, on hNAMPT protein (setting [1]), the inhibition at 1 µM came to 98%. At hNAMPT protein, this molecule came in with an IC50 of under 10 nM.

Take `COCCOc1cc(-c2ccc(F)cc2)nc2cc(C(=O)NCCCc3ncn[nH]3)ccc12` [Compound I-124, N-(3-(4H-1,2,4-triazol-3-yl)propyl)-2-(4-fluorophenyl)-4-(2-methoxyethoxy)quinoline-7-carboxamide]: in the assay on PC3 cells, the viability at 1.667 µM worked out at 2%. Besides, the inhibition at 1 µM at hNAMPT protein (setting [1]) was 92%. On hNAMPT protein, this molecule returned an IC50 of 50 to 100 nM.

As for `CCOc1cc(-c2ccnc(C)c2)nc2cc(C(=O)NCCCc3ccn[nH]3)ccc12` [Compound I-149, 4-ethoxy-2-(2-methylpyridin-4-yl)-N-[3-(1H-pyrazol-5-yl)propyl]quinoline-7-carboxamide], the viability at 1.667 µM in the assay on PC3 cells was 2%. Moreover, the inhibition at 1 µM on hNAMPT protein (setting [1]) turned out to be 96%. At hNAMPT protein, this molecule had an IC50 of 10 to 50 nM.

Turning to `CCOc1cc(-c2ccc(C)nc2)nc2cc(C(=O)NCCCc3cnn[nH]3)ccc12` [Compound I-110, 4-ethoxy-2-(6-methylpyridin-3-yl)-N-[3-(1H-1,2,3-triazol-5-yl)propyl]quinoline-7-carboxamide], in the assay with PC3 cells, the viability at 1.667 µM worked out at 2%. The inhibition at 1 µM on hNAMPT protein (setting [1]) was 100%. The IC50 against hNAMPT protein is under 10 nM.

On to `CCOc1cc(-c2ccccc2)nc2cc(C(=O)NCCCc3nnc[nH]3)ccc12` [Compound I-207, 4-ethoxy-2-phenyl-N-[3-(4H-1,2,4-triazol-3-yl)propyl]quinoline-7-carboxamide], for which the viability at 1.667 µM in the assay with PC3 cells is 2%. In addition, the inhibition at 1 µM on hNAMPT protein (setting [1]) was found to be 96%. This molecule returned a half-maximal inhibitory concentration (IC50) against hNAMPT protein of 10 to 50 nM.

On to `CCOc1cc(-c2ccc(F)cc2)nc2cc(C(=O)NCCCc3cnn[nH]3)ccc12` [Compound I-115, 4-ethoxy-2-(4-fluorophenyl)-N-[3-(1H-1,2,3-triazol-5-yl)propyl]quinoline-7-carboxamide], for which the viability at 1.667 µM with PC3 cells turned out to be 2%. Besides, the inhibition at 1 µM on hNAMPT protein (setting [1]) is over 99%. Further, on hNAMPT protein, the 50% inhibitory concentration (IC50) is under 10 nM.

Take `CCOc1cc(-c2ccn(C)c(=O)c2)nc2cc(C(=O)NCCCc3cnn[nH]3)ccc12` [Compound I-95, 4-ethoxy-2-(1-methyl-2-oxo-1,2-dihydropyridin-4-yl)-N-[3-(1H-1,2,3-triazol-5-yl)propyl]quinoline-7-carboxamide]: in the assay with PC3 cells, the viability at 1.667 µM was 1%. The inhibition at 1 µM at hNAMPT protein (setting [1]) was over 99%. This molecule registered an IC50 on hNAMPT protein of under 10 nM.

Take `CCOc1cc(-c2ccncc2OC)nc2cc(C(=O)NCCCc3nnc[nH]3)ccc12` [Compound I-139, 4-ethoxy-2-(3-methoxypyridin-4-yl)-N-[3-(4H-1,2,4-triazol-3-yl)propyl]quinoline-7-carboxamide]: in the assay with PC3 cells, the viability at 1.667 µM amounted to 2%. Moreover, the inhibition at 1 µM at hNAMPT protein (setting [1]) was 99%. On hNAMPT protein, this molecule gave an IC50 of 10 to 50 nM.

As for `CCOc1cc(-c2ccc(F)cc2)nc2cc(C(=O)NCC(F)(F)Cc3nnc[nH]3)ccc12` [Compound I-91, N-[2,2-difluoro-3-(4H-1,2,4-triazol-3-yl)propyl]-4-ethoxy-2-(4-fluorophenyl)quinoline-7-carboxamide], in the assay with PC3 cells, the viability at 1.667 µM was found to be 2%. Further, the inhibition at 1 µM on hNAMPT protein (setting [1]) turned out to be 80%. The same molecule yielded a half-inhibitory concentration (IC50) on hNAMPT protein of over 100 nM.

In the case of `CCOc1cc(-c2ccnc(OC)c2)nc2cc(C(=O)NCCCc3ccn[nH]3)ccc12` [Compound I-155, 4-ethoxy-2-(2-methoxypyridin-4-yl)-N-[3-(1H-pyrazol-5-yl)propyl]quinoline-7-carboxamide], the viability at 1.667 µM in the assay on PC3 cells was 2%. In addition, the inhibition at 1 µM on hNAMPT protein (setting [1]) is 98%. In addition, the IC50 against hNAMPT protein was in the range of 10 to 50 nM.

In the case of `CCOc1cc(-c2cc(F)cnc2OC)nc2cc(C(=O)NCCCc3nnc[nH]3)ccc12` [Compound I-161, 4-ethoxy-2-(5-fluoro-2-methoxypyridin-3-yl)-N-[3-(4H-1,2,4-triazol-3-yl)propyl]quinoline-7-carboxamide], the viability at 1.667 µM with PC3 cells turned out to be 2%. The inhibition at 1 µM on hNAMPT protein (setting [1]) was determined as 97%. The molecule also registered an IC50 against hNAMPT protein of 10 to 50 nM.

Take `CCOc1cc(-c2ccc(F)cc2)nc2cc(C(=O)NCCc3ccn[nH]3)ccc12` [Compound I-46, 4-ethoxy-2-(4-fluorophenyl)-N-[2-(1H-pyrazol-5-yl)ethyl]quinoline-7-carboxamide]: the viability at 1.667 µM in the assay with PC3 cells was 3%. The inhibition at 1 µM at hNAMPT protein (setting [1]) worked out at 97%. The IC50 against hNAMPT protein is 10 to 50 nM.

Regarding `COCCOc1cc(-c2ccc(F)cc2)nc2cc(C(=O)NCc3ccn4ncnc4c3)ccc12` [Compound I-82, 2-(4-fluorophenyl)-4-(2-methoxyethoxy)-N-([1,2,4]triazolo[1,5-a]pyridin-7-ylmethyl)quinoline-7-carboxamide], in the assay on PC3 cells, the viability at 1.667 µM stood at 2%. Also, the inhibition at 1 µM on hNAMPT protein (setting [1]) is 100%. The IC50 against hNAMPT protein was under 10 nM.

As for `CCOc1cc(-c2ccc(Cl)cc2)nc2cc(C(=O)NCCCc3nnc[nH]3)ccc12` [Compound I-198], in the assay with PC3 cells, the viability at 1.667 µM was determined as 3%. In addition, the inhibition at 1 µM on hNAMPT protein (setting [1]) was 94%.

Take `CCOc1cc(-c2ccc(C)nc2)nc2cc(C(=O)NCc3nc4cnccc4[nH]3)ccc12` [Compound I-167, 4-ethoxy-N-(1H-imidazo[4,5-c]pyridin-2-ylmethyl)-2-(6-methylpyridin-3-yl)quinoline-7-carboxamide]: the viability at 1.667 µM in the assay on PC3 cells is 2%. Moreover, the inhibition at 1 µM on hNAMPT protein (setting [1]) was over 99%. In addition, the IC50 at hNAMPT protein was under 10 nM.

As to `CCOc1cc(-c2ccnc(C)c2)nc2cc(C(=O)NCCc3nnc[nH]3)ccc12` [Compound I-172, 4-ethoxy-2-(2-methylpyridin-4-yl)-N-[2-(4H-1,2,4-triazol-3-yl)ethyl]quinoline-7-carboxamide], the viability at 1.667 µM in the assay on PC3 cells came to 6%. The inhibition at 1 µM on hNAMPT protein (setting [1]) was 71%. For the same molecule, the IC50 on hNAMPT protein was over 100 nM.

For the molecule `CCOc1cc(-c2ccc(Cl)cc2)nc2cc(C(=O)NCCCc3ncc[nH]3)ccc12` [Compound I-13, 2-(4-chlorophenyl)-4-ethoxy-N-[3-(1H-imidazol-2-yl)propyl]quinoline-7-carboxamide], the viability at 1.667 µM in the assay on PC3 cells was 0%. On hNAMPT protein, the half-inhibitory concentration (IC50) was under 10 nM and the inhibition at 1 µM was over 99%.

Take `CCOc1cc(-c2ccnc(OC)c2)nc2cc(C(=O)NCCc3[nH]nnc3C)ccc12` [Compound I-83, 4-ethoxy-2-(2-methoxypyridin-4-yl)-N-[2-(4-methyl-1H-1,2,3-triazol-5-yl)ethyl]quinoline-7-carboxamide]: the viability at 1.667 µM in the assay on PC3 cells came to 2%. The inhibition at 1 µM at hNAMPT protein (setting [1]) was 96%. On hNAMPT protein, this molecule returned a 50% inhibitory concentration (IC50) of 10 to 50 nM.
